{
  "source": "paper PMC6540285",
  "about": "“Evaluation of Protein Kinase Inhibitors with PLK4 Cross-Over Potential in a Pre-Clinical Model of Cancer” (International Journal of Molecular Sciences, 2019)",
  "key": {"PRKCH (PKC eta)": {"biological_target": "PRKCH (PKC eta) (Homo sapiens, UniProt P24723)", "sequence (P24723 whole entry)": "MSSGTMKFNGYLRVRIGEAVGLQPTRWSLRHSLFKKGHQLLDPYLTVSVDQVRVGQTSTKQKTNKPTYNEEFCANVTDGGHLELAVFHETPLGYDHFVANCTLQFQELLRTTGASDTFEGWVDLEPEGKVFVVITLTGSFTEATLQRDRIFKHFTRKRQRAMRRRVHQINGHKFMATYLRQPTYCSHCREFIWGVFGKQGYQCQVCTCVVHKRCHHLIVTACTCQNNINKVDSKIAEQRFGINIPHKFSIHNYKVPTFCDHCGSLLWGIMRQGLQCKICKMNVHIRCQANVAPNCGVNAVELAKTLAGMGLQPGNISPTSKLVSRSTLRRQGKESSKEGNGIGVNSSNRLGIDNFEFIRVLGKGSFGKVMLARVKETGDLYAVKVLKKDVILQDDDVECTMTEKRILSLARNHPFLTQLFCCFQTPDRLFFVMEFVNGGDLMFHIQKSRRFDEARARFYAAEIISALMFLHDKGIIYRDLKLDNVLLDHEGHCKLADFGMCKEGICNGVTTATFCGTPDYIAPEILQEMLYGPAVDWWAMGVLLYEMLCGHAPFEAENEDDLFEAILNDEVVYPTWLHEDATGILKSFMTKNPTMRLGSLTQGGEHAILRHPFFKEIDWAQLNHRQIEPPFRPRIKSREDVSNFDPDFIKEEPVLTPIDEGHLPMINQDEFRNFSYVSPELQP", "assay": "SelectScreen kinase profiling, ZLYTE", "assay_type": "biochemical"}, "MLK4": {"biological_target": "MLK4 (Homo sapiens, UniProt Q5TCX8)", "assay": "SelectScreen kinase profiling, LanthaScreen binding", "settings": "MLK4, 10 µM"}, "CSNK1A1 (CK1 alpha 1)": {"biological_target": "CSNK1A1 (CK1 alpha 1) (Homo sapiens, UniProt P48729)", "assay": "SelectScreen kinase profiling, ZLYTE", "assay_type": "biochemical"}, "PDGFRA D842V": {"biological_target": "PDGFRA D842V (Homo sapiens, UniProt P16234, D842V)", "assay": "SelectScreen kinase profiling, ZLYTE", "assay_type": "biochemical"}, "ERBB4 (HER4)": {"biological_target": "ERBB4 (HER4) (Homo sapiens, UniProt Q15303)", "assay": "SelectScreen kinase profiling, ZLYTE", "assay_type": "biochemical"}, "PI4K2B (PI4K2 beta)": {"biological_target": "PI4K2B (PI4K2 beta) (Homo sapiens, UniProt Q8TCG2)", "sequence (Q8TCG2 whole entry)": "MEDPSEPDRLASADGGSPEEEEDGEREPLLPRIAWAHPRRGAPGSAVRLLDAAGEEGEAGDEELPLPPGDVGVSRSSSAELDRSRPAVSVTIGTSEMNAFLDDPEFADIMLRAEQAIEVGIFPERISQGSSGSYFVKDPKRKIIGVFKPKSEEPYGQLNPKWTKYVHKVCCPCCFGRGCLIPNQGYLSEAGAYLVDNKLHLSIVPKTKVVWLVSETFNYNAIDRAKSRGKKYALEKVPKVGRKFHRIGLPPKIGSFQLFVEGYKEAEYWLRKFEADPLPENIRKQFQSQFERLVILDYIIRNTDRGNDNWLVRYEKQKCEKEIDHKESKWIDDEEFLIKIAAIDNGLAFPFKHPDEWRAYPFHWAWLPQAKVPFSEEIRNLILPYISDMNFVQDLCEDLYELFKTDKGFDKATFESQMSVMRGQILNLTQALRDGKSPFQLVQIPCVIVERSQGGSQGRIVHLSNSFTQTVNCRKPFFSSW", "assay": "SelectScreen kinase profiling, Adapta", "assay_type": "biochemical"}, "NTRK1 (TRKA)": {"biological_target": "NTRK1 (TRKA) (Homo sapiens, UniProt P04629)", "assay": "SelectScreen kinase profiling, ZLYTE", "assay_type": "biochemical"}, "ERN2": {"biological_target": "ERN2 (Homo sapiens, UniProt Q76MJ5)", "assay": "SelectScreen kinase profiling, LanthaScreen binding", "settings": "ERN2, 10 µM"}, "PRKCD (PKC delta)": {"biological_target": "PRKCD (PKC delta) (Homo sapiens, UniProt Q05655)", "assay": "SelectScreen kinase profiling, ZLYTE", "assay_type": "biochemical"}, "MAP4K5 (KHS1)": {"biological_target": "MAP4K5 (KHS1) (Homo sapiens, UniProt Q9Y4K4)", "assay": "SelectScreen kinase profiling, ZLYTE", "assay_type": "biochemical"}, "EIF2AK2 (PKR)": {"biological_target": "EIF2AK2 (PKR) (Homo sapiens, UniProt P19525)", "sequence (P19525 whole entry)": "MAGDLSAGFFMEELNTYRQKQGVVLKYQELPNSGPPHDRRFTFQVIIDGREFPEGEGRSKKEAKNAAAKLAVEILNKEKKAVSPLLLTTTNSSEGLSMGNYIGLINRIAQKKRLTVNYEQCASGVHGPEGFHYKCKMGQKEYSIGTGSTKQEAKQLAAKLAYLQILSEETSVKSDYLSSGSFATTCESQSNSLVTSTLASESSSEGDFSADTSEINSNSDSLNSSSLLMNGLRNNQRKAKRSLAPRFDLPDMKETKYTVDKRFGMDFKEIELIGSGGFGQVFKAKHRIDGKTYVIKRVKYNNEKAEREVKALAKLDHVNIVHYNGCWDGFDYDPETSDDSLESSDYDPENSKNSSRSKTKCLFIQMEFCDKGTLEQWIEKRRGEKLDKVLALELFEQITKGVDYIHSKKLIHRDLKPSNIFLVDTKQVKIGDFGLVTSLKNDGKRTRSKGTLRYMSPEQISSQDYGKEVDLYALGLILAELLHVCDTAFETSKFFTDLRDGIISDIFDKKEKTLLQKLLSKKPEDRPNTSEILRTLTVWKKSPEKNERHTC", "assay": "SelectScreen kinase profiling, LanthaScreen binding"}, "MAPK10 (JNK3)": {"biological_target": "MAPK10 (JNK3) (Homo sapiens, UniProt P53779)", "assay": "SelectScreen kinase profiling, ZLYTE", "assay_type": "biochemical"}, "PIK3C2G (PI3K-C2 gamma)": {"biological_target": "PIK3C2G (PI3K-C2 gamma) (Homo sapiens, UniProt O75747)", "assay": "SelectScreen kinase profiling, Adapta", "assay_type": "biochemical"}, "NLK": {"biological_target": "NLK (Homo sapiens, UniProt Q9UBE8)", "sequence (Q9UBE8 whole entry)": "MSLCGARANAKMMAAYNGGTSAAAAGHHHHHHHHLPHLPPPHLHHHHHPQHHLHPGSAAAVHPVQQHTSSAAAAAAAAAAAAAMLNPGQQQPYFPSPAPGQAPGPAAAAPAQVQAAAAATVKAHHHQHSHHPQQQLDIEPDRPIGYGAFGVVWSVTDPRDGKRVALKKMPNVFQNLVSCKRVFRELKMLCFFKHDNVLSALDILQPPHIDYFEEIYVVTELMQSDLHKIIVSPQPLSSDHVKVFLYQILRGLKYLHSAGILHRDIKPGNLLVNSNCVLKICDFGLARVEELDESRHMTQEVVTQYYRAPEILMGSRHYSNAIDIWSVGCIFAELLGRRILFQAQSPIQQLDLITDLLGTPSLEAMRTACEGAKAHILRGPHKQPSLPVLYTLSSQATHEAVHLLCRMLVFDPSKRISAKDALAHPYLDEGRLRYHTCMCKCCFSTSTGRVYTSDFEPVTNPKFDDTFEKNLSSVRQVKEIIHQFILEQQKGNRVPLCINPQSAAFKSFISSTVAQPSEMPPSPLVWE", "assay": "SelectScreen kinase profiling, LanthaScreen binding"}, "GRK6": {"biological_target": "GRK6 (Homo sapiens, UniProt P43250)", "assay": "SelectScreen kinase profiling, ZLYTE", "assay_type": "biochemical", "settings": "GRK6, 10 µM"}, "KIT V559D V654A": {"biological_target": "KIT V559D V654A (Homo sapiens, UniProt P10721, V559D/V654A)", "sequence (P10721 26-976 V559D/V654A)": "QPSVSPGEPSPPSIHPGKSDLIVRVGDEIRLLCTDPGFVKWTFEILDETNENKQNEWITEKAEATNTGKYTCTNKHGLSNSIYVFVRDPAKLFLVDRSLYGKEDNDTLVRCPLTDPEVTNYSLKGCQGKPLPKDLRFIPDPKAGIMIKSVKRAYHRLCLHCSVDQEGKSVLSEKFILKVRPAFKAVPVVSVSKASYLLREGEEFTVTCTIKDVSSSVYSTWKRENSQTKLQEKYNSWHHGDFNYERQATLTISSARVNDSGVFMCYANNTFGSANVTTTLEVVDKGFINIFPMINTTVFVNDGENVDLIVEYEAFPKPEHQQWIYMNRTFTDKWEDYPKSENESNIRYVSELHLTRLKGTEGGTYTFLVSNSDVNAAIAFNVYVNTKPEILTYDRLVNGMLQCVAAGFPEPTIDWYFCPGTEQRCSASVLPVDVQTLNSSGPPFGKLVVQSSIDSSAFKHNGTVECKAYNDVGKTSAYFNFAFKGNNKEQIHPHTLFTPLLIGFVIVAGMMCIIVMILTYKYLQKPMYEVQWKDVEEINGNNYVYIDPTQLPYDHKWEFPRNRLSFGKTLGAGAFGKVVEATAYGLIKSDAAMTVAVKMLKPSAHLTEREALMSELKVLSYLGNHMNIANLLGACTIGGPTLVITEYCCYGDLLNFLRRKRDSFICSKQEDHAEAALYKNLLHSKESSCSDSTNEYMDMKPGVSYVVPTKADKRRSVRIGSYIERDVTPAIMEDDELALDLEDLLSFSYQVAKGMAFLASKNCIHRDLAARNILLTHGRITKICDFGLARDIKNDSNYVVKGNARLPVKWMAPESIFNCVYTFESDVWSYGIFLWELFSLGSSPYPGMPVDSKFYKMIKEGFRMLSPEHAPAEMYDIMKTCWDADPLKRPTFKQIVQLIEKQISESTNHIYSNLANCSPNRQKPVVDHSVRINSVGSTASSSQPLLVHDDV", "assay": "SelectScreen kinase profiling, ZLYTE", "assay_type": "biochemical"}, "BRAF": {"biological_target": "BRAF (Homo sapiens, UniProt P15056)", "assay": "SelectScreen kinase profiling, LanthaScreen binding"}, "KIT V559D": {"biological_target": "KIT V559D (Homo sapiens, UniProt P10721, V559D)", "sequence (P10721 26-976 V559D)": "as the sequence (P10721 26-976 V559D/V654A) above, with A629V counted along it", "assay": "SelectScreen kinase profiling, ZLYTE", "assay_type": "biochemical"}, "TEK (TIE2) Y1108F": {"biological_target": "TEK (TIE2) Y1108F (Homo sapiens, UniProt Q02763, Y1108F)", "assay": "SelectScreen kinase profiling, LanthaScreen binding"}, "MAPK12 (p38 gamma)": {"biological_target": "MAPK12 (p38 gamma) (Homo sapiens, UniProt P53778)", "sequence (P53778 whole entry)": "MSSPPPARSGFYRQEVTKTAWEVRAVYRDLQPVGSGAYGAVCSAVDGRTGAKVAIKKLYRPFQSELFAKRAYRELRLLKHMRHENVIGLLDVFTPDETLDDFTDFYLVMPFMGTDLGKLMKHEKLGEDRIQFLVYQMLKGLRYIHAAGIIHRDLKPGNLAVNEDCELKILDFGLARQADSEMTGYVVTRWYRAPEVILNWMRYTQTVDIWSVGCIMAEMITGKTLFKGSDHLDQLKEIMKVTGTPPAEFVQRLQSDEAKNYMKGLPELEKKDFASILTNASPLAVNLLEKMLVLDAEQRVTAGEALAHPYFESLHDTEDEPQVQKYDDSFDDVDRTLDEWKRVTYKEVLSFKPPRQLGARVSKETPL", "assay": "SelectScreen kinase profiling, ZLYTE", "assay_type": "biochemical"}, "RET A883F": {"biological_target": "RET A883F (Homo sapiens, UniProt P07949, A883F)", "assay": "SelectScreen kinase profiling, ZLYTE", "assay_type": "biochemical"}, "LRRK2 G2019S FL": {"biological_target": "LRRK2 G2019S FL (Homo sapiens, UniProt Q5S007, G2019S)", "assay": "SelectScreen kinase profiling, Adapta", "assay_type": "biochemical"}, "AKT1 (PKB alpha)": {"biological_target": "AKT1 (PKB alpha) (Homo sapiens, UniProt P31749)", "assay": "SelectScreen kinase profiling, ZLYTE", "assay_type": "biochemical"}, "RIPK3": {"biological_target": "RIPK3 (Homo sapiens, UniProt Q9Y572)", "assay": "SelectScreen kinase profiling, LanthaScreen binding", "settings": "RIPK3, 10 µM"}, "CSNK2A1 (CK2 alpha 1)": {"biological_target": "CSNK2A1 (CK2 alpha 1) (Homo sapiens, UniProt P68400)", "assay": "SelectScreen kinase profiling, ZLYTE", "assay_type": "biochemical"}, "LRRK2 I2020T": {"biological_target": "LRRK2 I2020T (Homo sapiens, UniProt Q5S007, I2020T)", "assay": "SelectScreen kinase profiling, Adapta", "assay_type": "biochemical"}, "BRSK1 (SAD1)": {"biological_target": "BRSK1 (SAD1) (Homo sapiens, UniProt Q8TDC3)", "assay": "SelectScreen kinase profiling, ZLYTE", "assay_type": "biochemical"}, "MYO3B (MYO3 beta)": {"biological_target": "MYO3B (MYO3 beta) (Homo sapiens, UniProt Q8WXR4)", "assay": "SelectScreen kinase profiling, LanthaScreen binding"}, "GRK1": {"biological_target": "GRK1 (Homo sapiens, UniProt Q15835)", "assay": "SelectScreen kinase profiling, LanthaScreen binding", "settings": "GRK1, 10 µM"}, "KIT D820E": {"biological_target": "KIT D820E (Homo sapiens, UniProt P10721, D820E)", "sequence (P10721 26-976 D820E)": "as the sequence (P10721 26-976 V559D/V654A) above, with D534V, A629V, D795E counted along it", "assay": "SelectScreen kinase profiling, LanthaScreen binding"}, "P450 1A2": {"biological_target": "P450 1A2 (Homo sapiens, UniProt P05177)", "sequence (P05177 whole entry)": "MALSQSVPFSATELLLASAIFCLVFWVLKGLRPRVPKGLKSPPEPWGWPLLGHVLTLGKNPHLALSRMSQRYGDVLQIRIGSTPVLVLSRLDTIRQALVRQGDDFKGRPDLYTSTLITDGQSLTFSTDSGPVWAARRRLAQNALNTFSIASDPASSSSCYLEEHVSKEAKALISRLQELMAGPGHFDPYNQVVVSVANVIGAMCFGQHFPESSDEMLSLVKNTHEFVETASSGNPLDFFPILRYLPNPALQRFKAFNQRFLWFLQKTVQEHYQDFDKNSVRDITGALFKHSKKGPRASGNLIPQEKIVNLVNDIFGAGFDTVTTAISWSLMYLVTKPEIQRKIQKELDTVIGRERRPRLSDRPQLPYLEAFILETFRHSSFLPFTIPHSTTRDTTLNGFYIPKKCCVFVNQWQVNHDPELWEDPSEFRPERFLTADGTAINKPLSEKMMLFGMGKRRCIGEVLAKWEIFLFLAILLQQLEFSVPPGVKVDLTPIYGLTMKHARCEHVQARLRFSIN", "assay": "SelectScreen P450 Vivid biochemical assay", "settings": "10000nM; substrate EOMCC"}, "[1]": {"biological_target": "PIK3CA/PIK3R1 (p110 alpha/p85 alpha) (Homo sapiens, UniProt P42336)", "assay": "SelectScreen kinase profiling, Adapta", "assay_type": "biochemical", "settings": "PIK3CA/PIK3R1, 10 µM"}, "PIM2": {"biological_target": "PIM2 (Homo sapiens, UniProt Q9P1W9)", "sequence (Q9P1W9 whole entry)": "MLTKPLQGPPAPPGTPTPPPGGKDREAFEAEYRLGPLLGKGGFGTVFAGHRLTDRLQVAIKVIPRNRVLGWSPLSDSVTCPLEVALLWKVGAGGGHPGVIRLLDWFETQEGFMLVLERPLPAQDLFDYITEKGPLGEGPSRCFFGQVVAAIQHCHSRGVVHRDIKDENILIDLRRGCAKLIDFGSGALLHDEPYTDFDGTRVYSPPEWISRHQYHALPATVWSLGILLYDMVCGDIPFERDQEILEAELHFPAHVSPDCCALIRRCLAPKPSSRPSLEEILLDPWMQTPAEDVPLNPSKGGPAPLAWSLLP", "assay": "SelectScreen kinase profiling, ZLYTE", "assay_type": "biochemical", "settings": "PIM2, 10 µM"}, "CDK7/cyclin H/MNAT1": {"biological_target": "CDK7/cyclin H/MNAT1 (Homo sapiens, UniProt P50613)", "assay": "SelectScreen kinase profiling, Adapta", "assay_type": "biochemical", "settings": "CDK7/cyclin H/MNAT1, 10 µM"}, "ERBB2 (HER2)": {"biological_target": "ERBB2 (HER2) (Homo sapiens, UniProt P04626)", "assay": "SelectScreen kinase profiling, ZLYTE", "assay_type": "biochemical"}, "ALK C1156Y": {"biological_target": "ALK C1156Y (Homo sapiens, UniProt Q9UM73, C1156Y)", "assay": "SelectScreen kinase profiling, LanthaScreen binding"}, "MAP3K2 (MEKK2)": {"biological_target": "MAP3K2 (MEKK2) (Homo sapiens, UniProt Q9Y2U5)", "assay": "SelectScreen kinase profiling, LanthaScreen binding"}, "MAP2K2 (MEK2)": {"biological_target": "MAP2K2 (MEK2) (Homo sapiens, UniProt P36507)", "sequence (P36507 whole entry)": "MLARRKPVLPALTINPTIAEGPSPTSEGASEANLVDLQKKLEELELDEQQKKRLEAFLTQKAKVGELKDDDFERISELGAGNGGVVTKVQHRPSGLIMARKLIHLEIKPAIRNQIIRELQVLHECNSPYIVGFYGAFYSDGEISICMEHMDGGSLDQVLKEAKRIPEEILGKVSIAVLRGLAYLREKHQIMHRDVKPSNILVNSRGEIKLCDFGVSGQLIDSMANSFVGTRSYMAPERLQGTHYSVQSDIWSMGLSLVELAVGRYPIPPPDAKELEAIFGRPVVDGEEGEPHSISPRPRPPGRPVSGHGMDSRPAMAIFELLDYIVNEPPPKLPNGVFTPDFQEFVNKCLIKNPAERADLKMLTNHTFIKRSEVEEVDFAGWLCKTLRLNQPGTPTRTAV", "assay": "SelectScreen kinase profiling, ZLYTE", "assay_type": "biochemical"}, "SGK (SGK1)": {"biological_target": "SGK (SGK1) (Homo sapiens, UniProt O00141)", "assay": "SelectScreen kinase profiling, ZLYTE", "assay_type": "biochemical"}},
  "data": [
    {"compound": "O=C(c1ccc(/C=C/c2n[nH]c3ccccc23)cc1)N1CCNCC1", "note": "[KW-2449]", "values": [
      {"measurement": "inhibition at 10 µM", "setting": "PRKCH (PKC eta)", "value": -2, "unit": "%"},
      {"measurement": "inhibition at 10 µM", "setting": "MLK4", "value": 17, "unit": "%"},
      {"measurement": "inhibition at 10 µM", "setting": "CSNK1A1 (CK1 alpha 1)", "value": 33, "unit": "%"},
      {"measurement": "inhibition at 10 µM", "setting": "PDGFRA D842V", "value": 98, "unit": "%"},
      {"measurement": "inhibition at 10 µM", "setting": "ERBB4 (HER4)", "value": 55, "unit": "%"},
      {"measurement": "inhibition at 10 µM", "setting": "PI4K2B (PI4K2 beta)", "value": -1, "unit": "%"},
      {"measurement": "inhibition at 10 µM", "setting": "NTRK1 (TRKA)", "value": 98, "unit": "%"},
      {"measurement": "inhibition at 10 µM", "setting": "ERN2", "value": 74, "unit": "%"},
      {"measurement": "inhibition at 10 µM", "setting": "PRKCD (PKC delta)", "value": 25, "unit": "%"},
      {"measurement": "inhibition at 10 µM", "setting": "MAP4K5 (KHS1)", "value": 102, "unit": "%"},
      {"measurement": "inhibition at 10 µM", "setting": "EIF2AK2 (PKR)", "value": 7, "unit": "%"},
      {"measurement": "inhibition at 10 µM", "setting": "MAPK10 (JNK3)", "value": 59, "unit": "%"},
      {"measurement": "inhibition at 10 µM", "setting": "PIK3C2G (PI3K-C2 gamma)", "value": 2, "unit": "%"},
      {"measurement": "inhibition at 10 µM", "setting": "NLK", "value": -2, "unit": "%"},
      {"measurement": "inhibition at 10 µM", "setting": "GRK6", "value": 62, "unit": "%"},
      {"measurement": "inhibition at 10 µM", "setting": "KIT V559D V654A", "value": 77, "unit": "%"},
      {"measurement": "inhibition at 10 µM", "setting": "BRAF", "value": -1, "unit": "%"},
      {"measurement": "inhibition at 10 µM", "setting": "KIT V559D", "value": 91, "unit": "%"},
      {"measurement": "inhibition at 10 µM", "setting": "TEK (TIE2) Y1108F", "value": 72, "unit": "%"},
      {"measurement": "inhibition at 10 µM", "setting": "MAPK12 (p38 gamma)", "value": 23, "unit": "%"},
      {"measurement": "inhibition at 10 µM", "setting": "RET A883F", "value": 99, "unit": "%"},
      {"measurement": "inhibition at 10 µM", "setting": "LRRK2 G2019S FL", "value": 100, "unit": "%"},
      {"measurement": "inhibition at 10 µM", "setting": "AKT1 (PKB alpha)", "value": 24, "unit": "%"},
      {"measurement": "inhibition at 10 µM", "setting": "RIPK3", "value": 18, "unit": "%"},
      {"measurement": "inhibition at 10 µM", "setting": "CSNK2A1 (CK2 alpha 1)", "value": 18, "unit": "%"},
      {"measurement": "inhibition at 10 µM", "setting": "LRRK2 I2020T", "value": 100, "unit": "%"},
      {"measurement": "inhibition at 10 µM", "setting": "BRSK1 (SAD1)", "value": 99, "unit": "%"},
      {"measurement": "inhibition at 10 µM", "setting": "MYO3B (MYO3 beta)", "value": 88, "unit": "%"},
      {"measurement": "inhibition at 10 µM", "setting": "GRK1", "value": 25, "unit": "%"},
      {"measurement": "inhibition at 10 µM", "setting": "KIT D820E", "value": 81, "unit": "%"},
      {"measurement": "% Inhibition 1A2 EOMCC", "setting": "P450 1A2", "value": -3, "unit": "%"},
      {"measurement": "inhibition at 10 µM", "setting": "[1]", "value": 11, "unit": "%"},
      {"measurement": "inhibition at 10 µM", "setting": "PIM2", "value": 8, "unit": "%"},
      {"measurement": "inhibition at 10 µM", "setting": "CDK7/cyclin H/MNAT1", "value": 98, "unit": "%"},
      {"measurement": "inhibition at 10 µM", "setting": "ERBB2 (HER2)", "value": 4, "unit": "%"},
      {"measurement": "inhibition at 10 µM", "setting": "ALK C1156Y", "value": 76, "unit": "%"},
      {"measurement": "inhibition at 10 µM", "setting": "MAP3K2 (MEKK2)", "value": 86, "unit": "%"},
      {"measurement": "inhibition at 10 µM", "setting": "MAP2K2 (MEK2)", "value": 75, "unit": "%"},
      {"measurement": "inhibition at 10 µM", "setting": "SGK (SGK1)", "value": 98, "unit": "%"}
    ]}
  ]
}
